The target in the assay is recombinant full length HPK-1 enzyme (Homo sapiens (Human), UniProt Q92918). Briefly: HPK-1 biochemical enzyme assay (ADP-Glo kinase inhibition). The conditions noted are these: recombinant full length HPK-1 6.8 nM, 10 μM ATP, 12.5 μM MBP, 30 mins at 25° C. In short, it runs like this: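 Recombinant full-length human HPK-1 (6.8 nM) incubated 30 min at 25° C. with 10 μM ATP and 12.5 μM swine MBP in 40 mM Tris pH 7.4, 20 mM MgCl2, 50 μM DTT, 0.1 mg/mL BSA. ADP measured by ADP-Glo; IC50 from 10 concentrations, normalized to no-enzyme and vehicle controls.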
Sequence of recombinant full length HPK-1 enzyme (Q92918 whole entry, species assumed): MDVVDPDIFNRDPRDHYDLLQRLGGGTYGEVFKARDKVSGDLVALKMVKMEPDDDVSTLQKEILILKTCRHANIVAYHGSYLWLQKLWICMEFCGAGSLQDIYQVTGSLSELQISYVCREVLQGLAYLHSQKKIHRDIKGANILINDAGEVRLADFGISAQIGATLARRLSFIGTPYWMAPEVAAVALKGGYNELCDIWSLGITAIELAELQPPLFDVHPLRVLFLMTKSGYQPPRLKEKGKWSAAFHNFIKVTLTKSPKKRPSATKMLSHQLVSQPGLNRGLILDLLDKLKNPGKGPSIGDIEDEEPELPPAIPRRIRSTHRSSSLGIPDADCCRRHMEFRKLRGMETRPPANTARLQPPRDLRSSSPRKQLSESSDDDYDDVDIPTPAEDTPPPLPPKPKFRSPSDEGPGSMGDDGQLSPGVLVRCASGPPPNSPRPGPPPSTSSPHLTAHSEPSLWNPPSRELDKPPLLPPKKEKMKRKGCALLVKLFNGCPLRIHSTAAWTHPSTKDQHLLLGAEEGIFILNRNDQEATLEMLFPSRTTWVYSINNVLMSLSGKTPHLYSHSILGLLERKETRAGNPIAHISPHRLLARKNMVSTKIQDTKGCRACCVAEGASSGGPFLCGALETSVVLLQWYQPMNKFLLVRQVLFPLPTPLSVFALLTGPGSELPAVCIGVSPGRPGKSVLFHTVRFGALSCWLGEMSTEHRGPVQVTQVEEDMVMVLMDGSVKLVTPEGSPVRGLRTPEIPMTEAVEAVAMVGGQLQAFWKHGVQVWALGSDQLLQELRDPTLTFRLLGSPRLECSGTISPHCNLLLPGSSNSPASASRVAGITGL
A general note: ADP-Glo turns the ADP formed in a reaction into a luminescent signal.

Some results are limits rather than exact numbers.

Broadly, the IC50 is the midpoint of a concentration-inhibition curve. `Cc1c(Nc2cc[nH]c(=O)c2C(=O)Nc2ccc(N3CCN(C(=O)N4CC(C)(C)C4)CC3)cc2)cnc2c1NCCO2` [Example 317, N-(4-(4-(3,3-dimethylazetidine-1-carbonyl)piperazin-1-yl)phenyl)-4-((8-methyl-2,3-dihydro-1H-pyrido[2,3-b][1,4]oxazin-7-yl)amino)-2-oxo-1,2-dihydropyridine-3-carboxamide]: the IC50 is ≤ 10 nM.

On to `Cc1c(Nc2cc[nH]c(=O)c2C(=O)Nc2ccc(N3CCN(C(=O)C4CC(F)(F)C4)CC3)cc2)cnc2c1NCCO2` [Example 318, N-(4-(4-(3,3-difluorocyclobutane-1-carbonyl)piperazin-1-yl)phenyl)-4-((8-methyl-2,3-dihydro-1H-pyrido[2,3-b][1,4]oxazin-7-yl)amino)-2-oxo-1,2-dihydropyridine-3-carboxamide], for which the IC50 is ≤ 10 nM.

Take `Cc1c(Nc2cc[nH]c(=O)c2C(=O)Nc2ccc(N3CCN(C(=O)N4CC(F)(F)C4)CC3)cc2)cnc2c1NCCO2` [Example 319, N-(4-(4-(3,3-difluoroazetidine-1-carbonyl)piperazin-1-yl)phenyl)-4-((8-methyl-2,3-dihydro-1H-pyrido[2,3-b][1,4]oxazin-7-yl)amino)-2-oxo-1,2-dihydropyridine-3-carboxamide]: the IC50 is ≤ 10 nM.

As for `Cc1c(Nc2cc[nH]c(=O)c2C(=O)Nc2ccc(N3CCN(C(=O)N4CC5(CCC5)C4)CC3)cc2)cnc2c1NCCO2` [Example 320, N-(4-(4-(2-azaspiro[3.3]heptane-2-carbonyl)piperazin-1-yl)phenyl)-4-((8-methyl-2,3-dihydro-1H-pyrido[2,3-b][1,4]oxazin-7-yl)amino)-2-oxo-1,2-dihydropyridine-3-carboxamide], the 50% inhibitory concentration (IC50) was ≤ 10 nM.

For `Cc1c(Nc2cc[nH]c(=O)c2C(=O)Nc2ccc(N3CCN(C(=O)N4CC5(COC5)C4)CC3)cc2)cnc2c1NCCO2` [Example 321, N-(4-(4-(2-oxa-6-azaspiro[3.3]heptane-6-carbonyl)piperazin-1-yl)phenyl)-4-((8-methyl-2,3-dihydro-1H-pyrido[2,3-b][1,4]oxazin-7-yl)amino)-2-oxo-1,2-dihydropyridine-3-carboxamide], the IC50 was 10 to 100 nM.

As to `Cc1c(Nc2cc[nH]c(=O)c2C(=O)Nc2ccc(N3CCN(C(=O)c4ccn(C)n4)CC3)cc2)cnc2c1NCCO2` [Example 322, N-(4-(4-(1-methyl-1H-pyrazole-3-carbonyl)piperazin-1-yl)phenyl)-4-((8-methyl-2,3-dihydro-1H-pyrido[2,3-b][1,4]oxazin-7-yl)amino)-2-oxo-1,2-dihydropyridine-3-carboxamide], the IC50 was in the range of 10 to 100 nM.

Consider `Cc1c(Nc2cc[nH]c(=O)c2C(=O)Nc2ccc(N3CCN4CCOC[C@H]4C3)cc2)cnc2c1NCCO2` [Example 323, (R)-N-(4-(hexahydropyrazino[2,1-c][1,4]oxazin-8(1H)-yl)phenyl)-4-((8-methyl-2,3-dihydro-1H-pyrido[2,3-b][1,4]oxazin-7-yl)amino)-2-oxo-1,2-dihydropyridine-3-carboxamide], for which the IC50 was 10 to 100 nM.

On to `Cc1c(Nc2cc[nH]c(=O)c2C(=O)Nc2ccc(N3CCN(C(=O)N4CCCC4)CC3)cc2)cnc2c1NCCO2` [Example 324, 4-((8-methyl-2,3-dihydro-1H-pyrido[2,3-b][1,4]oxazin-7-yl)amino)-2-oxo-N-(4-(4-(pyrrolidine-1-carbonyl)piperazin-1-yl)phenyl)-1,2-dihydropyridine-3-carboxamide], for which the IC50 was ≤ 10 nM.

Turning to `Cc1c(Nc2cc[nH]c(=O)c2C(=O)Nc2ccc(N3CCN(C(=O)N4CCC4)CC3)cc2)cnc2c1NCCO2` [Example 325, N-(4-(4-(azetidine-1-carbonyl)piperazin-1-yl)phenyl)-4-((8-methyl-2,3-dihydro-1H-pyrido[2,3-b][1,4]oxazin-7-yl)amino)-2-oxo-1,2-dihydropyridine-3-carboxamide], the IC50 was ≤ 10 nM.

`Cc1c(Nc2cc[nH]c(=O)c2C(=O)Nc2ccc(N3CCC(N4CCN(C(C)C)CC4)CC3)c(F)c2)cnc2c1NCC(C)O2` (stereo not drawn) [Example 326, 4-((3,8-dimethyl-2,3-dihydro-1H-pyrido[2,3-b][1,4]oxazin-7-yl)amino)-N-(3-fluoro-4-(4-(4-isopropylpiperazin-1-yl)piperidin-1-yl)phenyl)-2-oxo-1,2-dihydropyridine-3-carboxamide]: the IC50 was ≤ 10 nM.

As for `Cc1c(Nc2cc[nH]c(=O)c2C(=O)Nc2ccc(N3CCN4CCOC[C@@H]4C3)cc2)cnc2c1NCCO2` [Example 327, (S)-N-(4-(hexahydropyrazino[2,1-c][1,4]oxazin-8(1H)-yl)phenyl)-4-((8-methyl-2,3-dihydro-1H-pyrido[2,3-b][1,4]oxazin-7-yl)amino)-2-oxo-1,2-dihydropyridine-3-carboxamide], the IC50 is ≤ 10 nM.

Regarding `Cc1c(Nc2cc[nH]c(=O)c2C(=O)Nc2ccc(N3CCN4CCC[C@H]4C3)cc2)cnc2c1NCCO2` [Example 328, (S)-N-(4-(hexahydropyrrolo[1,2-a]pyrazin-2(1H)-yl)phenyl)-4-((8-methyl-2,3-dihydro-1H-pyrido[2,3-b][1,4]oxazin-7-yl)amino)-2-oxo-1,2-dihydropyridine-3-carboxamide], the IC50 is ≤ 10 nM.

`Cc1c(Nc2cc[nH]c(=O)c2C(=O)Nc2ccc(N3CCN4CCC[C@@H]4C3)cc2)cnc2c1NCCO2` [Example 329, (R)-N-(4-(hexahydropyrrolo[1,2-a]pyrazin-2(1H)-yl)phenyl)-4-((8-methyl-2,3-dihydro-1H-pyrido[2,3-b][1,4]oxazin-7-yl)amino)-2-oxo-1,2-dihydropyridine-3-carboxamide]: the IC50 was ≤ 10 nM.

Regarding `Cc1c(Nc2cc[nH]c(=O)c2C(=O)Nc2ccc(C3CCCCC3)cc2)cnc2c1NCCO2` [Example 330, N-(4-cyclohexylphenyl)-4-((8-methyl-2,3-dihydro-1H-pyrido[2,3-b][1,4]oxazin-7-yl)amino)-2-oxo-1,2-dihydropyridine-3-carboxamide], the IC50 lay in the range of 100 to 1000 nM.

Regarding `Cc1c(Nc2cc[nH]c(=O)c2C(=O)Nc2ccc(N3CCN(C(=O)C4CC4)CC3)cc2)cnc2c1NCCO2` [Example 332, N-(4-(4-(cyclopropanecarbonyl)piperazin-1-yl)phenyl)-4-((8-methyl-2,3-dihydro-1H-pyrido[2,3-b][1,4]oxazin-7-yl)amino)-2-oxo-1,2-dihydropyridine-3-carboxamide], the IC50 was ≤ 10 nM.

Take `CCC(C)C(=O)N1CCN(c2ccc(NC(=O)c3c(Nc4cnc5c(c4C)NCCO5)cc[nH]c3=O)cc2)CC1` (stereo not drawn) [Example 333, 4-((8-methyl-2,3-dihydro-1H-pyrido[2,3-b][1,4]oxazin-7-yl)amino)-N-(4-(4-(2-methylbutanoyl)piperazin-1-yl)phenyl)-2-oxo-1,2-dihydropyridine-3-carboxamide]: the IC50 was ≤ 10 nM.

For `Cc1c(Nc2cc[nH]c(=O)c2C(=O)Nc2ccc(N3CCN(C(=O)C4C(C)(C)C4(C)C)CC3)cc2)cnc2c1NCCO2` [Example 334, 4-((8-methyl-2,3-dihydro-1H-pyrido[2,3-b][1,4]oxazin-7-yl)amino)-2-oxo-N-(4-(4-(2,2,3,3-tetramethylcyclopropane-1-carbonyl)piperazin-1-yl)phenyl)-1,2-dihydropyridine-3-carboxamide], the IC50 is ≤ 10 nM.

Consider `Cc1c(Nc2cc[nH]c(=O)c2C(=O)Nc2ccc(N3CCN(C(=O)C(C)C)CC3)cc2)cnc2c1NCC(C)O2` (stereo not drawn) [Example 335, 4-((3,8-dimethyl-2,3-dihydro-1H-pyrido[2,3-b][1,4]oxazin-7-yl)amino)-N-(4-(4-isobutyrylpiperazin-1-yl)phenyl)-2-oxo-1,2-dihydropyridine-3-carboxamide], for which the IC50 was 10 to 100 nM.

Take `Cc1c(Nc2cc[nH]c(=O)c2C(=O)Nc2ccc(N3CCN(c4ccn(C)n4)CC3)cc2)cnc2c1NCCO2` [Example 336, N-(4-(4-(1-methyl-1H-pyrazol-3-yl)piperazin-1-yl)phenyl)-4-((8-methyl-2,3-dihydro-1H-pyrido[2,3-b][1,4]oxazin-7-yl)amino)-2-oxo-1,2-dihydropyridine-3-carboxamide]: the IC50 is ≤ 10 nM.

Consider `Cc1ncccc1N1CCN(c2ccc(NC(=O)c3c(Nc4cnc5c(c4C)NCCO5)cc[nH]c3=O)cc2)CC1` [Example 337, 4-((8-methyl-2,3-dihydro-1H-pyrido[2,3-b][1,4]oxazin-7-yl)amino)-N-(4-(4-(2-methylpyridin-3-yl)piperazin-1-yl)phenyl)-2-oxo-1,2-dihydropyridine-3-carboxamide], for which the IC50 was ≤ 10 nM.

Consider `Cc1c(Nc2cc[nH]c(=O)c2C(=O)Nc2ccc(N3CCN(c4cncnc4)CC3)cc2)cnc2c1NCCO2` [Example 338, 4-((8-methyl-2,3-dihydro-1H-pyrido[2,3-b][1,4]oxazin-7-yl)amino)-2-oxo-N-(4-(4-(pyrimidin-5-yl)piperazin-1-yl)phenyl)-1,2-dihydropyridine-3-carboxamide], for which the IC50 was 10 to 100 nM.

With `Cc1c(Nc2cc[nH]c(=O)c2C(=O)Nc2ccc(N3CCN(c4ncn(C)n4)CC3)cc2)cnc2c1NCCO2` [Example 339, N-(4-(4-(1-methyl-1H-1,2,4-triazol-3-yl)piperazin-1-yl)phenyl)-4-((8-methyl-2,3-dihydro-1H-pyrido[2,3-b][1,4]oxazin-7-yl)amino)-2-oxo-1,2-dihydropyridine-3-carboxamide], the IC50 is ≤ 10 nM.

Take `Cc1cc(N2CCN(c3ccc(NC(=O)c4c(Nc5cnc6c(c5C)NCCO6)cc[nH]c4=O)cc3)CC2)ccn1` [Example 340, 4-((8-methyl-2,3-dihydro-1H-pyrido[2,3-b][1,4]oxazin-7-yl)amino)-N-(4-(4-(2-methylpyridin-4-yl)piperazin-1-yl)phenyl)-2-oxo-1,2-dihydropyridine-3-carboxamide]: the IC50 was ≤ 10 nM.

Consider `Cc1c(Nc2cc[nH]c(=O)c2C(=O)Nc2ccc(N3CCN(C(=O)C(C)(C)C)CC3)cc2)cnc2c1NCCO2` [Example 341, 4-((8-methyl-2,3-dihydro-1H-pyrido[2,3-b][1,4]oxazin-7-yl)amino)-2-oxo-N-(4-(4-pivaloylpiperazin-1-yl)phenyl)-1,2-dihydropyridine-3-carboxamide], for which the IC50 was ≤ 10 nM.

The record behind these values is patent US20250282794A1 (CURADEV PHARMA LTD, priority 2022, published 2025).
